Earlier results, collected in patent publication US6342251B1, “Compositions for nasal administration” (West Pharmaceutical Services Drug Delivery & Clinical …, priority 1997, dated 2002).

What was measured:
[1] = Parkinson's disease
[2] = patients, erectile dysfunction

For `CN1CCc2cccc3c2[C@H]1Cc1ccc(O)c(O)c1-3` [apomorphine, (6aR)-5,6,6a, 7-tetrahydro-6-methyl-4H-dibenzo(d, e, g) quinoline-10, 11-diol hemihydrate], the “local reactions after intranasal administration” value [1] is listed as “transient nasal blockage and a burning sensation” and the “side effects after nasal administration” value [2] is listed as “unacceptable side effects such as yawning, nausea, vomiting, dizziness, blurred vision, diaphoresis, pallor and mild hypertension”.
